This passage reports GI50 and TGI results from PubChem BioAssay (NCI).

Each structure is given as a SMILES string.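 Test compounds were applied to cells in 96-well plates for 48 hours at 5 doses. GI50: concentration for 50% inhibition of growth. TGI: total growth inhibition.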

Among the test systems are A498 renal; BT-549 breast; HL-60(TB) leukemia; HS 578T breast; HT29 colon; IGROV1 ovarian; MDA-MB-231 breast; MDA-MB-435; SF-268 CNS; SNB-19 CNS.
What all share (test): DTP human tumour cell line panel, 48 h

By GI50 is commonly meant the concentration giving 50% growth inhibition. As usually defined, the TGI is the concentration at which net growth stops. The low end stands for greater sensitivity of the cells, the high end for lower sensitivity of the cells. Consider `O=C(NCCCNc1cc(-c2cn(-c3ccccc3)nc2-c2cccc(O)c2)ccn1)c1ccccc1`, for which the GI50 in the assay with A498 renal is 2.32 µM; with BT-549 breast, 2.72 µM; with HL-60(TB) leukemia it was 1.68 µM; in the assay on HS 578T breast, 3.06 µM; in the assay with HT29 colon it was 1.71 µM; with IGROV1 ovarian, 4.2 µM. Also, the GI50 in the assay with MDA-MB-231 breast was 2.34 µM; with MDA-MB-435 it was 1.87 µM; with SF-268 CNS, 3.74 µM; with SNB-19 CNS, 7.75 µM. For the same compound, the TGI with A498 renal stood at 66.4 µM; with BT-549 breast, 9.47 µM; with HL-60(TB) leukemia, 4.19 µM; in the assay on HS 578T breast it was 48.3 µM; with HT29 colon it was 5.23 µM; in the assay on IGROV1 ovarian it was 59.6 µM. Further, the TGI with MDA-MB-231 breast is 5.4 µM; in the assay with MDA-MB-435, 4.75 µM; with SF-268 CNS it was above 100 µM; with SNB-19 CNS it was above 100 µM.

In the case of `CCOc1cc2c(NCCCN(CCO)CCO)ncnc2c(OCC)c1OCC`, the TGI in the assay with A498 renal, in the assay with BT-549 breast, with HL-60(TB) leukemia, in the assay on HS 578T breast, in the assay on HT29 colon and in the assay on IGROV1 ovarian was above 100 µM in each case. Further, the TGI with MDA-MB-231 breast, in the assay with MDA-MB-435, with SF-268 CNS and with SNB-19 CNS was above 100 µM each time.

For `COC(=O)c1c2c(c(C)[n+]([O-])c1C)C(=O)C=C(NCc1ccc(F)c(F)c1)C2=O`, the GI50 was 0.931 µM in the assay with A498 renal; 1.12 µM with BT-549 breast; 0.302 µM in the assay on HL-60(TB) leukemia; 1.89 µM with HS 578T breast; 0.304 µM in the assay with HT29 colon; 0.36 µM in the assay with IGROV1 ovarian. In addition, the GI50 in the assay with MDA-MB-231 breast was 0.251 µM; with MDA-MB-435, 0.131 µM; in the assay with SF-268 CNS, 1.07 µM; with SNB-19 CNS it was 1.08 µM. In addition, the TGI was found to be 2.43 µM with A498 renal; 2.42 µM in the assay on BT-549 breast; 1.02 µM in the assay with HL-60(TB) leukemia; 6.17 µM in the assay on HS 578T breast; 3.17 µM in the assay with HT29 colon; 1.68 µM in the assay with IGROV1 ovarian. Also, the TGI in the assay on MDA-MB-231 breast turned out to be 1.83 µM; in the assay on MDA-MB-435 it was 0.27 µM; in the assay on SF-268 CNS, 3.32 µM; in the assay on SNB-19 CNS, 2.29 µM.

With `N#Cc1c(-c2ccccc2)cc(-c2ccc(Nc3nc(Nc4ccc(Cl)cc4)nc(Nc4ccc(Cl)cc4)n3)cc2)nc1N`, the GI50 was 1.28 µM in the assay with A498 renal; 5.2 µM with BT-549 breast; 1.71 µM in the assay on HL-60(TB) leukemia; 1.2 µM with HS 578T breast; 3.8 µM in the assay on HT29 colon; 1.34 µM with IGROV1 ovarian. The GI50 in the assay with MDA-MB-231 breast is 1.76 µM; in the assay with MDA-MB-435, 2.8 µM; with SF-268 CNS it was 4.33 µM; in the assay on SNB-19 CNS, 29.7 µM. For the same compound, the TGI in the assay on A498 renal came to 8.72 µM; in the assay on BT-549 breast, 24.2 µM; in the assay on HL-60(TB) leukemia, 5.35 µM; in the assay with HS 578T breast, 6.02 µM; in the assay on HT29 colon, 16.5 µM; with IGROV1 ovarian it was 2.67 µM. Further, the TGI is 4.89 µM in the assay with MDA-MB-231 breast, 14.1 µM with MDA-MB-435, 19.7 µM with SF-268 CNS and above 100 µM in the assay with SNB-19 CNS.

Take `NNc1cccc(/C=C/c2ccccc2)cc1=O`: the GI50 was 13 µM with A498 renal; 33.5 µM with BT-549 breast; 3.97 µM with HL-60(TB) leukemia; 18.5 µM in the assay on HS 578T breast; 10.7 µM with HT29 colon; 4.26 µM with IGROV1 ovarian. Also, the GI50 is 4.73 µM with MDA-MB-231 breast, 4.31 µM in the assay on MDA-MB-435, 4.27 µM in the assay with SF-268 CNS and 14.9 µM with SNB-19 CNS. Further, the TGI is 55.7 µM in the assay on A498 renal; above 100 µM in the assay with BT-549 breast; above 100 µM with HL-60(TB) leukemia; above 100 µM with HS 578T breast; above 100 µM in the assay with HT29 colon; 46.1 µM with IGROV1 ovarian. The TGI with MDA-MB-231 breast is above 100 µM; in the assay with MDA-MB-435 it was 50.1 µM; in the assay on SF-268 CNS it was above 100 µM; in the assay with SNB-19 CNS, above 100 µM.

`N=C(N=C(N)N)N1CCN(c2ccncc2)CC1`: the GI50 in the assay on A498 renal is 155 µM; in the assay on BT-549 breast it was above 1000 µM; in the assay with HL-60(TB) leukemia, above 1000 µM; in the assay on HS 578T breast it was 913 µM; in the assay on HT29 colon it was above 1000 µM; in the assay with IGROV1 ovarian it was above 1000 µM. Further, the GI50 in the assay with MDA-MB-231 breast, in the assay on MDA-MB-435, in the assay with SF-268 CNS and in the assay on SNB-19 CNS was above 1000 µM throughout. Further, the TGI with A498 renal, in the assay with BT-549 breast, in the assay with HL-60(TB) leukemia, in the assay with HS 578T breast, with HT29 colon and with IGROV1 ovarian was above 1000 µM in each case. Besides, the TGI in the assay with MDA-MB-231 breast, in the assay on MDA-MB-435, in the assay with SF-268 CNS and in the assay on SNB-19 CNS was above 1000 µM in each case.

With `CCOC(=O)C(=Cc1ccccc1[N+](=O)[O-])C(=O)OCC`, the GI50 in the assay on A498 renal was 5.6 µM; in the assay on BT-549 breast it was 5.28 µM; in the assay with HL-60(TB) leukemia it was 3.3 µM; in the assay on HS 578T breast, 2.71 µM; in the assay with HT29 colon, 3.27 µM; in the assay with IGROV1 ovarian, 3.77 µM. In addition, the GI50 was 2.48 µM in the assay with MDA-MB-231 breast, 3.08 µM in the assay on MDA-MB-435, 3.35 µM in the assay on SF-268 CNS and 4.27 µM in the assay on SNB-19 CNS. Further, the TGI came out at 17.3 µM in the assay with A498 renal; 17.3 µM in the assay with BT-549 breast; 45.5 µM in the assay on HL-60(TB) leukemia; 11.6 µM in the assay with HS 578T breast; 9.39 µM in the assay on HT29 colon; 15.4 µM with IGROV1 ovarian. In addition, the TGI came to 7.59 µM in the assay on MDA-MB-231 breast, 12.1 µM in the assay on MDA-MB-435, 11.5 µM in the assay with SF-268 CNS and 16.4 µM in the assay with SNB-19 CNS.

For `COc1ccc2c(Nc3ccc(NS(C)(=O)=O)cc3)c3ccccc3nc2c1`, the GI50 in the assay with A498 renal was 0.375 µM; in the assay with BT-549 breast, 1.5 µM; in the assay on HL-60(TB) leukemia it was 0.427 µM; in the assay with HS 578T breast it was 0.292 µM; in the assay on HT29 colon it was 0.326 µM; with IGROV1 ovarian, 0.418 µM. Further, the GI50 in the assay on MDA-MB-231 breast was 1.52 µM; in the assay with MDA-MB-435 it was 0.817 µM; in the assay with SF-268 CNS it was 0.469 µM; in the assay on SNB-19 CNS, 0.445 µM. Besides, the TGI in the assay on A498 renal was 2.05 µM; in the assay with BT-549 breast, 3.67 µM; in the assay on HL-60(TB) leukemia it was 4.45 µM; in the assay on HS 578T breast, 2.64 µM; in the assay on HT29 colon it was 1.58 µM; in the assay with IGROV1 ovarian, 16.7 µM. The concentration for total growth inhibition (TGI) was 6.65 µM in the assay on MDA-MB-231 breast, 2.4 µM in the assay on MDA-MB-435, 4.03 µM with SF-268 CNS and 11.4 µM in the assay with SNB-19 CNS.
